Test results from patent US8207133B1, “Peptides that down regulate the activity of plasma membrane transporters including sodium-D-glucose cotransporter SGLT1” (Julius-Maximilians-Universitat Wurzburg, priority 2005, dated 2012).
Where two headings read alike, the source gives them in different places. Residues, ends and D or L forms follow the SMILES beside them.

Assays:
[1] = test system: RS1 at the TGN in LLC-PK1 cells; experiment: Immunostaining of RS1 in subconfluent LLC-PK1 cells after brefeldin A; format: cell-based; details: 2 μg/ml brefeldin A, 1 min or 5 min
Procedure: For immunostaining, LLC-PK1 cells were grown on coverslips to about 50% confluence. The cells were washed twice with washing buffer (5 mM 3-(N-morpholino)propanesulfonic acid-NaOH, pH 7.4, 100 mM NaCl, 3 mM KCl, 2 mM CaCl2, and 1 mM MgCl2), fixed for 12 min with 4% (w/v) paraformaldehyde diluted in washing buffer, and washed twice again. Free aldehyde groups were quenched by 10 min incubation with washing buffer containing 40 mM glycine. For immunoreactions, washed cells were permeabilized by a 10-min incubation with washing buffer containing 0.25% (w/v) TritonX-114, and incubated over night at 4° C. with primary antibodies diluted in washing buffer. The dilutions of primary antibodies were as follows: rabbit-anti-RS1-Ab 1:50 (Valentin (2000), Biochim. Biophys. Acta, 1468, 367-380); QIS30 directed against SGLT1 1:400 (Kipp (2003), Am. J. Physiol., 285, C737-C749), sheep-anti-TGN46 1:125 (from Diagnostic International, Schriesheim, Germany). After incubation with primary antibodies, cells were washed 3 times with washing buffer and incubated for 1 h at room temperature with fluorochrome linked secondary antibodies (goat antibody against rabbit IgG linked to AlexaFluor 488 Molecular Probes, Leiden, Netherlands, and donkey anti-sheep IgG coupled to Cy2 from Dianova, Hamburg, Germany). […]

[2] = test system: sodium dependent amino acid transporters; details: 60 min, pH 6.5, 3 mM QCP, 10 mM amino acids
Procedure: Walls of small intestinal mucosa from mice are inserted into an Ussing chamber and transepitehial currents are measured that are induced by addition of 10 mM of various amino acids to the mucosal side. The intestinal walls are incubated for 60 min with buffer at pH 6.5 containing 0.1 mM D-glucose or with buffer at pH 6.5 containing 0.1 mM D-glucose plus 3 mM of QCP. After washing, amino acid induced transepithelial currents without and with preteatment with QCP are compared.

hSGLT1 [3] = experiment: [14C]AMG uptake after incubating oocytes expressing hSGLT1 with or without hPEPT1 with tripeptide in the medium; format: cell-based, human; details: pH 6.5
Procedure: In a different experimental setup, oocytes were injected with SGLT1 cRNA (2.5 ng per oocyte) or with hSGLT1 cRNA (2.5 ng per oocyte) plus hPEPT1 cRNA (10 ng per oocyte) and the oocytes were incubated 3 days for expression. Thereafter the oocytes were incubated 30 min with Ori buffer adjusted to pH 6.5 or with Ori buffer adjusted to pH 6.5 containing 3 mM of the tested tripeptide. Thereafter oocytes were washed with Ori buffer (pH 7.4) and uptake of [^14C]AMG was measured.
It was furthermore elucidated whether in human small intestine the expression of hSGLT1 can be inhibited by oral ingestion of QCP. […] Thereafter the oocytes were washed with neutral Ori buffer and the hSGLT1 expressed uptake of 50 μM [^14C]AMG was measured (FIG. 7). QCP had no effect in oocytes in which hSGLT1 but not hPEPT1 was expressed (data not shown). However, in oocytes expressing hSGLT1 plus hPEPT1, [^14C]AMG uptake was inhibited by about 50% when the oocytes had been incubated with QCP (FIG. 7). Incubation of oocytes expressing hSGLT1 plus hPEPT1 with PCQ had no effect on the expressed uptake of [^14C]AMG.

hOCT2 = details: intracellular AMG 0.1 mM, <0.01 mM or 10 mM
Procedure: Corresponding measurements were performed in the presence of intracellular AMG concentrations of 0.1 mM, <0.01 mM or 10 mM.

SGLT1 = details: 60 min pre-incubation, pH 6.5, 3 mM QCP, 0.1 mM D-glucose
Procedure: Walls of small intestinal mucosa from mice are inserted into an Ussing chamber and the SGLT1 mediated transepitehila currents are measured that are induced by addition of 0.1 mM D-glucose to the mucosal side. The intestinal walls are pre-incubated for 60 min with buffer at pH 6.5 containing 0.1 mM D-glucose or with buffer at pH 6.5 containing 0.1 mM D-glucose plus 3 mM of QCP. After washing glucose-induced transepithelial currents are measured.

[4] = 10 mM QCP in drinking water pH 6.0, 2 months, standard chow or sugar low diet
Text: The body weight development with and without peptide treatment is compared over 2 months.

hPEPT1 = target: T1, hPEPT1 (Homo sapiens, UniProt P46059); experiment: Electrogenic peptide transport by hPEPT1 in oocytes, two-electrode voltage clamp; format: cell-based
T1 construct: expressed in transfected cells; host or cells: Xenopus laevis oocytes (cRNA injection, 30 ng per oocyte)
T1 sequence (P46059 1-708): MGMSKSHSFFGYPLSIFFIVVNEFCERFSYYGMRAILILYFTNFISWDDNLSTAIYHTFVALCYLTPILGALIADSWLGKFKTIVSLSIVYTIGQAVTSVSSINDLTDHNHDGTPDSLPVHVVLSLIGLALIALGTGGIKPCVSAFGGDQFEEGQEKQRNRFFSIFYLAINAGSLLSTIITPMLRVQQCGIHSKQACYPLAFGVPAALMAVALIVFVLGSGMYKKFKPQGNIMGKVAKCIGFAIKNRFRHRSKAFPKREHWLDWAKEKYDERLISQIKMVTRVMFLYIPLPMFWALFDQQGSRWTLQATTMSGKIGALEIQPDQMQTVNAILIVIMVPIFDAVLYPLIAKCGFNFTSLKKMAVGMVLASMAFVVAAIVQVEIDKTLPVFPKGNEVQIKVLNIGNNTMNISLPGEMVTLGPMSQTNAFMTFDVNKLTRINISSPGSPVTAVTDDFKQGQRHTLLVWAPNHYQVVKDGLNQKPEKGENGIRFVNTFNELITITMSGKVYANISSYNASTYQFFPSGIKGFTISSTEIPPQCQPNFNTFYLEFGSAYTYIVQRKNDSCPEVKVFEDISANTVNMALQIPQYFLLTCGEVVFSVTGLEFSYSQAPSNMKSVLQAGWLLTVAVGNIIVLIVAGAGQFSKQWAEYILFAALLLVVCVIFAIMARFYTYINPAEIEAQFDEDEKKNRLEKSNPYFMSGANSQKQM
Procedure: The oocytes were incubated for three days at 16° C. in ORi buffer (in mM: 5 HEPES-Tris, pH 7.4, 100 NaCl, 3 KCl, 2 CaCl2, and 1 MgCl2). […] The oocytes were superfused with Ori buffer titrated to pH 6.5, the membrane potential of the oocytes was clamped to −40 mV, and inward current induced by superfusion with Ori buffer (pH 6.5) containing 5 mM of a control dipeptide or 5 mM of the tested tripeptide was measured.

hSGLT1 [5] = experiment: hSGLT1 expressed [14C]AMG uptake in Xenopus oocytes after injection of hRS1 protein or hRS1 peptides; format: cell-based, human

In the case of `C[C@H]1CCC/C=C/[C@@H]2C[C@H](O)C[C@H]2[C@H](O)/C=C/C(=O)O1` [brefeldin A], the “immunoreactivity of RS1 at the perinuclear compartment” value [1] is reported as “disappeared within several minutes”.

For Glutamine-Cysteine-Proline [QCP], the “transepithelial flux of amino acids” value [2] was “inhibits transepithelial flux of amino acids”, the “effect on AMG uptake in oocytes expressing hSGLT1 but not hPEPT1” value (hSGLT1 [3]) was “no effect” and the “inhibition of [14C]AMG uptake in oocytes expressing hSGLT1 plus hPEPT1” value (hSGLT1 [3]) was “about 50%”. The “hOCT2 expressed [14C]TEA uptake after injection” value (hOCT2) was “appears not to be inhibited”, the transepithelial glucose flux (SGLT1) was “inhibits transepithelial glucose flux” and the body weight [4] was “body weight is reduced”. For the same compound, the “inward currents in control oocytes not injected with hPEPT1 cRNA” value (hPEPT1) was “no inward currents”, the “inward currents in oocytes expressing hPEPT1” value (hPEPT1; pH 6.5) was “significant inward currents” and the “AMG uptake inhibition in the absence of BTXB” value (hSGLT1 [5]) was “inhibited”. For the same compound, the “AMG uptake inhibition in the presence of BTXB” value (hSGLT1 [5]) was “no significant inhibition”, the “inhibition of glucose uptake expressed by hSGLT1” value (hSGLT1 [5]) was “about 50%” and the “inhibition of hSGLT1 expressed AMG uptake after stimulation of protein kinase C” value (hSGLT1 [5]) was “not changed”. For the same compound, the “inhibition of hSGLT1 expressed AMG uptake with coexpressed dominant negative mutant of dynamin I” value (hSGLT1 [5]) was “not changed”, the “inhibition of hSGLT1 expressed uptake of AMG after 3 h” value (hSGLT1 [5]) was 60% and the “inhibition of hSGLT1 expressed uptake of AMG after 5 h” value (hSGLT1 [5]) was “about 40%”. The “inhibition of hSGLT1 expressed uptake of AMG after 10 h” value (hSGLT1 [5]) was 20-30%, the “inhibitory effect on expression of hSGLT1 when the exocytotic pathway was blocked” value (hSGLT1 [5]) was “could be prevented” and the “intracellular concentration of QCP at which 35-40% inhibition was obtained” value (hSGLT1 [5]) was “below 5 nM”. For the same compound, the “inhibition of hSGLT1 expressed AMG uptake” value (hSGLT1 [5]; 0.05 µM) was 35-40%.

For “SDSDRIEP [Serine-Aspartic acid-Serine-Aspartic acid-Arginine-Isoleucine-Glutamic acid-Proline, octapeptide of hRS1, amino acid positions 43 to 50]”, the “inhibition of glucose uptake expressed by hSGLT1” value (hSGLT1 [5]) was “about 50%”, the “inhibition of hSGLT1 expressed AMG uptake after stimulation of protein kinase C” value (hSGLT1 [5]) was “not changed” and the “inhibition of hSGLT1 expressed AMG uptake with coexpressed dominant negative mutant of dynamin I” value (hSGLT1 [5]) was “not changed”. For the same compound, the “inhibitory effect on expression of hSGLT1 when the exocytotic pathway was blocked” value (hSGLT1 [5]) was “could be prevented”.

For `NCC(=O)N[C@@H](CCC(N)=O)C(=O)O` [GC, glycylglutamine, reference compound] (H-Gly-Gln-OH), the “inward currents in oocytes expressing hPEPT1” value (hPEPT1; 5 mM peptide, pH 6.5, clamped to -40 mV) was “significant inward currents” and the “inward currents in control oocytes not injected with hPEPT1 cRNA” value (hPEPT1; data not shown) was “no inward currents”.

For “SVQPCQENQ [reverse nonapeptide of […], reference compound]”, the “inhibition of uptake of 50 μM [14C]AMG” value (hSGLT1 [5]; 50 nl/oocyte containing 1.5 mM peptide injected, 30 min) was “No inhibition”.
